According to patent publication US20250041377A1, “PHARMACEUTICAL USE” (ENLITISA (SHANGHAI) PHARMACEUTICAL CO., LTD., priority 2018, published 2025):
Where a SMILES comes first, the peptide text is derived from it. Where no end group is shown, it is not given here. [ ]: non-standard residue; d: D form. Dopa = N[C@@H](Cc1ccc(O)c(O)c1)C(=O)O; Hyp = O=C(O)[CH]1C[CH](O)CN1; 3Hyp = 3-hydroxyproline

Assays:
[1] = tested on: TNF-α, IL-6 and IL-1B in exudate; assay: Air pouch model, ELISA of exudate; assay type: in vivo, C57BL/6 mice; conditions: 300 μg/mouse into air pouch; FIG. 1
Experimental: Healthy adult male C57BL/6 mice weighing between 20 and 30 g were supplied by Nanjing Biomedicial Research Institute of Nanjing University (NBRI). Prior to any experiments being conducted, mice were housed under standardized conditions (at a constant temperature of 22±2° C., with alternating 12 hour periods of light and darkness), and were fed on a standard mouse diet with water, for about a week.
General anesthesia was induced using intraperitoneal 3% chloral hydrate (Sinopharm Chemical Reagent Co., Ltd., Shanghai, China; 1 mL/10 g of body weight). The hair of the entire dorsum was shaved and depilated 1 day before sterile air injection.
Air pouches were produced by subcutaneous injection of sterile air (5 mL) into the intrascapular area of the mice. After three days, another injection of air (3 mL) was performed to maintain the pouches. […]
Exudates were collected and volumes were quantified. The exudates were centrifuged at 3000 rpm for 10 minutes at 4° C., and the supernatants were collected and stored at −20° C. for ELISA analysis using standard ELISA test kits from Beijing 4A Biotech Co., Ltd. (Beijing) and an ELISA reader (SH-1000 Hitachi, Japan) for […] (TNF-α), interleukin 1 beta (IL-1B), interleukin 6 (IL-6). […]

[2] = tested on: Hyp, VEGF and TGF-β1 in wound tissue; assay: Acute wound model, ELISA of wound tissue; assay type: in vivo, C57BL/6 mice; conditions: for wound Hyp content (Mean): indicator of collagen regeneration; for TGF-β1 content (Mean): wound tissue
Description: The model group was given same amount of normal saline. There were 8 mice in each group.
Samples were taken at Day 4 and Day 7 post-wound infliction. The mice were sacrificed and the wound tissue taken by the same biopsy punch used to create the wound. Then 5 mm of tissue was cut off from the center of the sample and was preserved in 10% neutral buffered formalin (Nanchang Rain Dew Experimental Equipment Co., Ltd., Nanchang, Hubei Province, China), and analyzed by histological embedding (HE) in paraffin wax, sectioning and staining.
The rest of the samples were stored at −80° C. for further analysis. Tissue was cut into small pieces and liquid nitrogen was added to increase brittleness. 9 mL of normal saline was added to 1 g of tissue, which was then ground using a Tissuelyser (Shanghai Jingxin Industrial Development Co., Ltd., Shanghai, China) at 55 Hz for 60 seconds, followed by centrifuging at 8000 rpm for 10 minutes at 4° C.
The supernatant was collected, and the extracted protein was used for ELISA analysis using standard ELISA test kits and an ELISA reader (SH-1000 Hitachi, Japan). Vascular endothelial growth factor (VEGF), transforming growth factor beta 1 (TGF-β1) and hydroxyproline (Hyp) were assayed. The ELISA kits were purchased from Beijing 4A Biotech Co., Ltd. (Beijing, China).

[3] = tested on: allergic skin (redness, itching, swelling); assay: Liquid spray to treat allergic dermatitis; assay type: in vivo, human
Experimental: Compound B (see Example 1 above) was dissolved in Water for Injection (WFI; prepared from a TC-RO-0.25/h-2 Water Treatment System, Yangzhou Tiancheng Water Treatment Devices & Engineering Co., Ltd., Yangzhou, China). The concentration was 0.3 mg/mL.
The enrolled subjects in the study had allergic skin. Prior to treatment, the patients presented symptoms including skin redness, itching and swelling. Subjects were required to use the liquid spray in the morning and the evening after facial cleansing.

closed comedones = assay: Cream to treat closed comedones; assay type: in vivo, human; conditions: cream 0.1 mg/g, morning and evening
Experimental: Compound B (10 mg; see Example 1 above) was first dissolved in WFI (10 g).
A mixture was then made comprising sorbitan stearate (2 g), cetyl alcohol (4 g), octanoic/capric glyceride (6 g) and glyceryl monostearate (3 g) (all Sinopharm Chemical Reagent Co. Ltd.), which was stirred and heated to 85° C. to melt the mixture completely.
Glycerin (5 g; Sinopharm Chemical Reagent Co. Ltd.) and ammonium acryloyldimethyltaurate/VP copolymer (0.13 g; Clariant Chemical (Guangzhou) Co., Ltd., China) were mixed with 68.86 g of WFI. This mixture was stirred and heated to 85° C. to provide a homogeneous colloidal suspension.
The copolymer/water mixture was added to the sorbitan stearate-containing mixture, which was then quickly stirred using emulsification equipment for 5 minutes. The resultant emulsion was cooled to room temperature.
The Compound B solution was then added to the resultant mixture with stirring to obtain the finished cream. The concentration of Compound B in the final cream was 0.1 mg/g.
Subjects with closed comedones (blocked pores) and in an acute attacking period of acne were enrolled in the study. Symptoms included sebaceous glands blocked by keratinocytes, forming a slightly hard lump and a protruding white head.
The cream was evenly smeared in the morning and evening after facial cleansing.

common cold = assay: Liquid spray to treat common cold; assay type: in vivo, human
Experimental: Compound B was dissolved in Injection water (WFI; from a TC-RO-0.25 T/h-2 water treatment system, Yangzhou Tiancheng Water Treatment Devices & Engineering Co., Ltd., Yangzhou, China). The concentration was 0.5 mg/mL. 5 mL was loaded into a plastic water spray bottle.
The enrolled subject in the study was inflicted with a common cold for 2 days prior to treatment. Other cold treatments were not used before treatment. The subject, who presented a cough, a sore throat and a loss of voice, was required to use the liquid spray (3 to 5 presses each time, in the morning and evening.

Row | Molecule | ELISA test results of the exudate for TNF-α, IL-6 and IL-1B [1] | wound Hyp content (Mean) ([2]; Day 4) | TGF-β1 content (Mean) ([2]; Day 4) | wound Hyp content (Mean) ([2]; Day 7) | TGF-β1 content (Mean) ([2]; Day 7) | increase of VEGF production in the wounded tissue ([2]; in comparison with model group) | time to relief of itching ([3]; liquid spray 0.3 mg/mL in Water for Injection, first use, subjects with allergic skin) | capillary congestion, facial redness and swelling ([3]; liquid spray 0.3 mg/mL, morning and evening, after 1 day of use) | lumps of closed comedones (closed comedones) | throat pain (common cold; liquid spray 0.5 mg/mL in WFI, 3 to 5 presses morning and evening, after the first use) | throat pain and voice (common cold; liquid spray 0.5 mg/mL, after the second use)
1 | CC(N)C(=O)NC(CCCCN)C(=O)N1CCCC1C(=O)NC(CO)C(=O)NC(Cc1ccc(O)cc1)C(=O)N1CC(O)CC1C(=O)N1CC(O)CC1C(=O)NC(C(=O)NC(Cc1ccc(O)cc1)C(=O)NC(CCCCN)C(=O)O)C(C)O (stereo not drawn) [Compound B, Ala-Lys-Pro-Ser-Tyr-Hyp-Hyp-Thr-Tyr-Lys] (H-AKPSY[Hyp][Hyp]TYK-OH; configuration not given here) | very strong anti-inflammatory effects | 2.039 µg/mg | 20571.8 pg/g | 2.810 µg/mg | 18659.6 pg/g | about 56.7% | ≤ 8 min | no longer red and swollen after 1 day of use | disappeared after 1 day of use | throat pain was relieved after the first use | throat was no longer painful and could speak
2 | Ala-Lys-Pro-Ser-Tyr-Hyp-Hyp-Thr-DOPA-Lys (AKPSY[3Hyp][Hyp]T[Dopa]K; listed as Mytilus edulis) [Compound A] | – | 3.676 µg/mg | 11866.2 pg/g | 2.694 µg/mg | 18074.8 pg/g | – | – | – | – | – | –
